Measured values reported in patent publication US20040048369A1, “Control of inward-rectifier K+ ion channels” (priority 2002, published 2004).
Like-named read-outs stand apart in the source and are kept apart here. Blank lines part the entries; values can stand above or below the molecule they belong to.

What was measured:
IRK1 channels [1] = target: T1, IRK1 channels (Mus musculus, UniProt P35561); assay: Block of IRK1 currents by intracellular chemicals, inside-out patches of Xenopus oocytes injected with IRK1 cRNA; assay type: cell-based; conditions: for inward rectification with intracellular metal ion chelator: each at 5 mM, pH 7.6, phosphate buffer
T1 construct: expressed in transfected cells; host or cells: Xenopus laevis oocytes injected with IRK1 cRNA; inside-out patches
T1 sequence (P35561 1-428): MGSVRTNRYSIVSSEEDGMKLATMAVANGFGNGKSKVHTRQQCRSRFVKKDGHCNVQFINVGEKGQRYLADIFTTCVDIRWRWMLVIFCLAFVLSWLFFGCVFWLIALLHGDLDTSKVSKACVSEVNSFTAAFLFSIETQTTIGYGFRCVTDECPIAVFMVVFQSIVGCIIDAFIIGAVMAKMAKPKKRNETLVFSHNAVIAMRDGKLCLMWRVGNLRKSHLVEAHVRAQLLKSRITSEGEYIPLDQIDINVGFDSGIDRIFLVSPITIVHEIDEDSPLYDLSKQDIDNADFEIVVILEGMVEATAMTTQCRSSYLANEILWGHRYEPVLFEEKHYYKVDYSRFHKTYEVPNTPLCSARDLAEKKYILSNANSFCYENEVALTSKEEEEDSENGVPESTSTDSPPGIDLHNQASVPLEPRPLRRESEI
Procedure: IRK1 cDNA (Kubo et al., 1993) was cloned into the pGEM-Hess plasmid (IRK1-pGEMHess construct, provided by J. Yang). RNA was synthesized using T7 polymerase (Promega Corp., Madison, Wis.) from Nhe1-linearized cDNAs. Oocytes harvested from Xenopus laevis (Xenopus One, Ann Arbor, Mich.) were incubated in a solution containing NaCl, 82.5 mM; KCI, 2.5 mM; MgCl2, 1.0 mM; HEPES (pH 7.6), 5.0 mM and collagenase, 2-4 mg/ml. The oocyte preparation was agitated at 80 rpm for 60-90 minutes. It was then rinsed thoroughly and stored in a solution containing NaCl, 96 mM; KCl, 2.5 mM; CaCl2, 1.8 mM; MgCl2, 1.0 mM; HEPES (pH 7.6), 5 mM and gentamicin, 50 μg/ml. Defolliculated oocytes were selected and injected with RNA at least 2 and 16 hours, respectively, after collagenase treatment. All oocytes were stored at 18° C.
(§1) IRK1 currents were recorded from inside-out membrane patches of Xenopus oocytes (injected with IRK1cRNA) with an Axopatch 200B amplifier (Axon Instruments, Inc., Foster City, Calif.), filtered at 5 kHz, and sampled at 25 kHz using an analog-to-digital converter (DigiData 1200, Axon Instruments) interfaced with a personal computer. pClamp6 software (Axon Instruments) was used to control the amplifier and acquire the data. During current recording, the voltage across the membrane patch was first hyperpolarized from the 0 mV holding potential to −100 mV, and then stepped to various test voltages, or stepped directly from the holding potential. […] Background leak current correction was carried out as previously described (Lu and MacKinnon, Nature 371:243-246 (1994); Guo and Lu, 2000a). To effectively perfuse the patch, the tip of the patch pipette (3 MΣ) was immersed in a stream of intracellular solution exiting one of ten glass capillaries (ID=0.2 mm) mounted in parallel.
All recording solutions contained 100 mM K^+ contributed by KCl, K2EDTA, K2HPO4, KH2PO4, and KOH. The phosphate-buffered intracellular solution contained 5 mM K2EDTA (unless specified otherwise), and 10 mM “K2HPO4+KH2PO4” in a ratio yielding the desired pH, and sufficient KCl to bring total K^+ concentration to 100 mM (Guo and Lu, 2000a). The HEPES-buffered intracellular solution, as used in FIG. 3, contained (100 mM K^+ (Cl^−+OH^−), 5 mM EDTA and 10 mM HEPES, pH 7.2 (adjusted with KOH). The HEPES-buffered extracellular solution contained 100 mM K^+ (Cl^−+OH^−), 0.3 mM CaCl2, 1.0 mM MgCl2, and 10 mM HEPES, pH 7.6 (adjusted with KOH). In the phosphate-buffered extracellular solution, HEPES was replaced by an equal concentration of “K2HPO4+KH2PO4” in a ratio yielding pH 7.6. The divalent cation-free extracellular solution contained 5 mM EDTA. All chemicals were purchased from Fluka Chemical Corp.
In all cases the intracellular solutions contained 100 mM K^+, 5 mM EDTA and 10 mM phosphate (pH 7.6) in addition to the tested chemicals, while the extracellular solution contained 100 mM K^+, 0.3 mM Ca^2+, 1 mM Mg^2+, 10 mM phosphate (pH 7.6). The currents were corrected for background current.

IRK1 channels [2] = target: T1, IRK1 channels; assay: Relaxation/block of inward IRK1 currents by extracellular chemicals, inside-out patches; assay type: cell-based; conditions: 10 mM HEPES, 3 μM HEP or 0.3 μM piperazine
Procedure: as §1
The phosphate-buffered intracellular solution contained 5 mM K2EDTA (unless specified otherwise), and 10 mM “K2HPO4+KH2PO4” in a ratio yielding the desired pH, and sufficient KCl to bring total K^+ concentration to 100 mM (Guo and Lu, 2000a). The HEPES-buffered intracellular solution, as used in FIG. 3, contained (100 mM K^+ (Cl^−+OH^−), 5 mM EDTA and 10 mM HEPES, pH 7.2 (adjusted with KOH). The HEPES-buffered extracellular solution contained 100 mM K^+ (Cl^−+OH^−), 0.3 mM CaCl2, 1.0 mM MgCl2, and 10 mM HEPES, pH 7.6 (adjusted with KOH). In the phosphate-buffered extracellular solution, HEPES was replaced by an equal concentration of “K2HPO4+KH2PO4” in a ratio yielding pH 7.6. The divalent cation-free extracellular solution contained 5 mM EDTA. All chemicals were purchased from Fluka Chemical Corp.
Since solutions in the quoted study were HEPES buffered, currents elicited with the voltage protocol used to produce the data in FIG. 12 were evaluated with no added divalent cations in the extracellular solution to determine whether the current relaxation was due to the use of extracellular HEPES.
The channel block associated with extracellular HEPES was examined to determine whether it could also be caused by residual contaminants. Intra- and extracellular solutions were buffered with 10 mM phosphate. […] The ratio of currents at the end and the beginning of voltage pulses (Iend/Ibgn) was plotted against membrane voltage.

IRK1 channels [3] = target: T1, IRK1 channels; conditions: 2000b, cited from earlier work
Kir2.1 = Kir2.1 (Homo sapiens, UniProt P63252); conditions: 100 μM; cited from earlier work
Kir2.1, sequence (P63252 whole entry): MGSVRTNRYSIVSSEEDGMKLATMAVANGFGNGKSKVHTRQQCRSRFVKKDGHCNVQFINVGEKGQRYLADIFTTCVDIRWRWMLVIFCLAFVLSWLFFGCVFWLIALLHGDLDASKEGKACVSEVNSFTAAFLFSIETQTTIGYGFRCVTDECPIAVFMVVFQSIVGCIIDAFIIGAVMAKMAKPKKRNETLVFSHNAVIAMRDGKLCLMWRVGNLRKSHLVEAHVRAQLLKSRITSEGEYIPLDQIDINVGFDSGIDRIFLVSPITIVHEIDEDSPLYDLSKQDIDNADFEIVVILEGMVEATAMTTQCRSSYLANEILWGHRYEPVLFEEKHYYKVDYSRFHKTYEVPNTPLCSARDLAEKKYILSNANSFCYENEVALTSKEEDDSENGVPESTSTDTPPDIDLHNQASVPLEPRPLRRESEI

Kir1.1 = Kir1.1 (Homo sapiens, UniProt P48048); conditions: 100 μM; cited from earlier work
Kir1.1, sequence (P48048 whole entry): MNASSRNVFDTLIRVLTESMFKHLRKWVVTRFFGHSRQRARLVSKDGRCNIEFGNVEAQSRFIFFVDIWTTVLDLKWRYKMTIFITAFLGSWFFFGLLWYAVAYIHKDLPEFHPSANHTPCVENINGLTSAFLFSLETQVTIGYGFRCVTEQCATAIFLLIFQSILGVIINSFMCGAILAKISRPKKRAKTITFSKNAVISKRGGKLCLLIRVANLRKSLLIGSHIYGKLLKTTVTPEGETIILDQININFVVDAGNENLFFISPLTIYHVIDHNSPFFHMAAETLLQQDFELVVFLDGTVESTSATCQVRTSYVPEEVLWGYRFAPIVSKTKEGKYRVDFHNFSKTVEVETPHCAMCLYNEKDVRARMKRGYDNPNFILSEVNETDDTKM

Shaker channel = Shaker channel (Drosophila melanogaster, UniProt P08510); conditions: 100 μM; cited from earlier work
Shaker channel, sequence (P08510 whole entry): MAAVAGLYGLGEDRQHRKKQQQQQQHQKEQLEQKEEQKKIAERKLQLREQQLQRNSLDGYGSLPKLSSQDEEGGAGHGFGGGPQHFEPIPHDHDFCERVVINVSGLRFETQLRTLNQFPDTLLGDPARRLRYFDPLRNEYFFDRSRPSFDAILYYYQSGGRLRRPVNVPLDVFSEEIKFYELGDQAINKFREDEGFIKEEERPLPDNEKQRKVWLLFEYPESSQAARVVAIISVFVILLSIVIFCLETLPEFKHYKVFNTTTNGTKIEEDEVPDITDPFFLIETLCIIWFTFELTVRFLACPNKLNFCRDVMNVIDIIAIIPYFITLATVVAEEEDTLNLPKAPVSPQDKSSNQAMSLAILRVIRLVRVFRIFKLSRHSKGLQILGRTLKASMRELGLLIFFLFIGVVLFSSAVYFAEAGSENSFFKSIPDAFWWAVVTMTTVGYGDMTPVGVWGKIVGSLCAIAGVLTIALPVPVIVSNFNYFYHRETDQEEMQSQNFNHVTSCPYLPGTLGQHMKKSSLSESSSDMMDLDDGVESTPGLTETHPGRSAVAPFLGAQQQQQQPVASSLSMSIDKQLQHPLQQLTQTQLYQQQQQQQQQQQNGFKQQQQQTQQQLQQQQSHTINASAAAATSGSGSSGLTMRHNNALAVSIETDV

[4] = tested on: Kir2.1 (E224 and E299 replaced with neutral ones); conditions: 100 μM; cited from earlier work
[5] = Goodman & Gilman's; cited from earlier work
[6] = intracellular blocker, Kd at 0 mV, mean±sem, read-out: Kd (0 mV), fit of the Woodhull equation

SMILES: O=C(O)CN(CC(=O)O)C1CCCCC1N(CC(=O)O)CC(=O)O (stereo not drawn) [CDTA, cyclohexane 1,2-diaminetetraacetic acid]
inward rectification with intracellular metal ion chelator (IRK1 channels [1]): more pronounced

SMILES: OCCN1CCNCC1 [HEP, hydroxyethyl piperazine]
relative potency of channel block (qualitative) (IRK1 channels [1]; 10 mM HEPES, 3 μM HEP, 0.3 μM piperazine, intracellular): much more potent | Z (valence), fit of the Woodhull equation (IRK1 channels [1]; intracellular blocker): 1.09±0.03 | Kd (IRK1 channels [1]; [6]): 2970 ± 160 µM | inward current relaxation / channel block by extracellular chemical (IRK1 channels [2]; 20 mM extracellular K+): blocked the channels

SMILES: [Mg+2] [Mg^2+]
Kd (IRK1 channels [1]; intracellular Mg2+, FIG. 7B, read-out: Kd (0 mV), fit of the Woodhull equation to the Mg2+-inhibition curve): 17 µM | Z (valence), fit of the Woodhull equation (IRK1 channels [1]; intracellular blocker): 1.1

SMILES: C1CNCCN1 [piperazine]
Z (valence), fit of the Woodhull equation (IRK1 channels [1]; intracellular blocker): 1.08±0.02 | Kd (IRK1 channels [1]; [6]): 270 ± 40 µM | inward current relaxation / channel block by extracellular chemical (IRK1 channels [2]; 20 mM extracellular K+): blocked the channels | inhibition of Kir2.1 (Kir2.1): dramatically inhibits | effect on Kir1.1 (Kir1.1): no effects | effect on Shaker channel (Shaker channel): no effects | sensitivity of mutant Kir2.1 [4]: practically insensitive | adverse effects attending use [5]: Occasional gastrointestinal upset, transient neurological effects, and urticarial reaction | laboratory studies on patients receiving treatment for several days [5]: no abnormality | use during pregnancy [5]: without ill effect

SMILES: NCCCNCCCCNCCCN [spermine]
effective valence of channel block (IRK1 channels [3]; Guo and Lu 2000a): ~5 | Kd (IRK1 channels [3]; Guo and Lu 2000a, read-out: Kd (0 mV) for binding of fully protonated spermine): ~0.1 µM

Now from value to molecule, other results behind:

inward rectification with intracellular metal ion chelator (IRK1 channels [1]): least rectification
SMILES: O=C(O)CN(CCN(CC(=O)O)CC(=O)O)CC(=O)O [EDTA, ethylene diamine tetraacetic acid]

inward rectification with intracellular metal ion chelator (IRK1 channels [1]): more pronounced
SMILES: O=C(O)CN(CCOCCOCCN(CC(=O)O)CC(=O)O)CC(=O)O [EGTA, ethylene glycol bis(β-aminoethyl ether) N,N,N′,N′-tetraacetic acid]

Z (valence), fit of the Woodhull equation (IRK1 channels [1]; intracellular blocker): 1.02±0.02 | inward current relaxation / channel block by extracellular chemical (IRK1 channels [2]; 20 mM extracellular K+): prominent inward current relaxation | inward current relaxation / channel block by extracellular chemical (IRK1 channels [2]; 100 mM extracellular K+): little or no relaxation
SMILES: O=S(=O)(O)CCN1CCN(CCO)CC1 [HEPES, 4-(2 hydroxyethyl)-1-piperazineethanesulfonic acid]

potency of channel block relative to EDTA (IRK1 channels [1]; 0.1 μM ethylenediamine versus 30 mM EDTA, intracellular): > 10,000 fold
SMILES: NCCN [ethylenediamine]
Z (valence) (IRK1 channels [3]; Guo and Lu): 2 | Kd (IRK1 channels [3]; Guo and Lu, read-out: Kd (0 mV)): 1400 µM
